{"source": "paper PMC10705561", "about": "(bioRxiv, 2023)", "key": {"[1]": {"tested_on": "rNsp5-S144M recombinant SARS-CoV-2", "type": "cell-based"}, "[2]": {"tested_on": "rNsp5-L50F/E166V recombinant SARS-CoV-2", "type": "cell-based"}}, "data": [{"molecule": "CC(C)(C)[C@H](NC(=O)C(F)(F)F)C(=O)N1C[C@H]2[C@@H]([C@H]1C(=O)N[C@H](C#N)C[C@@H]1CCNC1=O)C2(C)C", "note": "[nirmatrelvir]", "values": [{"measurement": "EC50 fold-increase compared to WT", "setting": "[1]", "result": 12.5}, {"measurement": "EC50 fold-increase compared to WT", "setting": "[2]", "result": 24.2}]}]}
